These results are taken from ChEMBL document CHEMBL1201862, “PubChem BioAssay data set” (2004).

Molecules are shown by their SMILES.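 Assay format: 96-well plates, 48-hour exposure. Abbreviation: GI50, concentration required for 50% inhibition of growth.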 The source made the active and inactive calls. Rule as the data show it: active = GI50 up to about 1.1 µM and inactive = higher. Some results are limits rather than exact numbers.

Common to all, as to assay: growth of human tumour cells (NCI), 48 h
Experiment [1] concerns U-251.
The test system of experiment [2] is HCT-15.
The subject of experiment [3] is MOLT-4.
Experiment [4] has as its system OVCAR-4.
Experiment [5] has as its system SK-MEL-2.
The test system of experiment [6] is LOX IMVI.
Experiment [7] relates to SK-MEL-5.
The test system of experiment [8] is RXF 393.
Experiment [9] relates to OVCAR-8.
Experiment [10] deals with SF-539.
Experiment [11] relates to OVCAR-5.
The test system of experiment [12] is HCT-116.
For experiment [13], the system named is HOP-62.
Experiment [14] relates to UACC-257.
The test system of experiment [15] is SNB-19.
Experiment [16] relates to Malme-3M.

For the molecule `S=c1sc2c(Cl)ncnc2n1-c1ccccc1`, the GI50 in experiment [1] is 16 µM (inactive); in experiment [2] it was 15.1 µM; in [3], 18.2 µM (inactive); in experiment [4], 18.8 µM (inactive); in [5], 8.81 µM (inactive); in experiment [6], 4.28 µM (inactive). For the same molecule, the GI50 was 16.1 µM (inactive) in [7]; 15.1 µM (inactive) in experiment [8]; 16.1 µM (inactive) in experiment [9]; 16.3 µM (inactive) in experiment [10]; 22.9 µM (inactive) in experiment [11]; 5.66 µM (inactive) in experiment [12]. In addition, the GI50 is 15.6 µM (inactive) in [13], 15.5 µM (inactive) in [14], 18.2 µM (inactive) in experiment [15] and 10.9 µM (inactive) in experiment [16].
Take `CCCCN(CC)CC(C(C)=O)c1c(O)c2ccccc2oc1=O` (centres undefined): the GI50 was > 100 µM (inactive) in experiment [1]; greater than 100 µM in experiment [2]; > 100 µM (inactive) in [3]; > 100 µM (inactive) in experiment [4]; > 100 µM (inactive) in experiment [5]; > 100 µM (inactive) in experiment [6]. The GI50 in [7], in [8], in [9], in experiment [10], in experiment [11] and in experiment [12] was > 100 µM (inactive) in each case. Besides, the GI50 in [13], in [14], in experiment [15] and in experiment [16] was > 100 µM (inactive) in each case.
In the case of `Cc1ccc(NCC(=O)N2CC(=O)Nc3ccccc32)c(C)c1`, the GI50 in experiment [1] is > 100 µM (inactive); in experiment [2], greater than 100 µM; in experiment [3], > 100 µM (inactive); in experiment [4] it was > 100 µM (inactive); in [5] it was > 100 µM (inactive); in experiment [6] it was > 100 µM (inactive). In addition, the GI50 in experiment [7], in experiment [8], in experiment [9], in [10], in experiment [11] and in [12] was > 100 µM (inactive) throughout. Also, the GI50 in experiment [13], in [14], in experiment [15] and in experiment [16] was > 100 µM (inactive) each time.
Take `Cc1ccccc1/N=N/c1c(-c2ccccc2)nn(C(=O)CC(=O)Nc2cccc(Cl)c2)c1-c1ccccc1`: the GI50 in [1] is 13.7 µM (inactive); in experiment [2] it was 16.9 µM; in experiment [3], 13 µM (inactive); in experiment [4] it was 22.6 µM (inactive); in experiment [5] it was 12.7 µM (inactive); in experiment [6], 15.3 µM (inactive). For the same molecule, the GI50 was 15.8 µM (inactive) in experiment [7]; 19.9 µM (inactive) in [8]; 21.3 µM (inactive) in experiment [9]; 24.2 µM (inactive) in [10]; 16.7 µM (inactive) in [11]; 13.4 µM (inactive) in experiment [12]. Further, the GI50 was > 31.6 µM (inactive) in experiment [13], 0.247 µM (active) in experiment [14], 36.4 µM (inactive) in [15] and 37.9 µM (inactive) in experiment [16].
With `COc1ccc(-c2cc(-c3ccco3)c(C#N)c(=O)n2C2OC(OC(=O)c3ccccc3)C(OC(=O)c3ccccc3)C2OC(=O)c2ccccc2)cc1` (centres undefined), the GI50 is 33.1 µM (inactive) in experiment [1]; greater than 100 µM in [2]; > 100 µM (inactive) in [3]; > 100 µM (inactive) in [4]; > 100 µM (inactive) in [5]; > 100 µM (inactive) in experiment [6]. In addition, the GI50 in [7] was > 100 µM (inactive); in experiment [8] it was 14.4 µM (inactive); in [9] it was > 100 µM (inactive); in experiment [10] it was > 100 µM (inactive); in experiment [11] it was > 100 µM (inactive); in experiment [12], 40.2 µM (inactive). The GI50 in experiment [13] was 52.6 µM (inactive); in experiment [14] it was > 100 µM (inactive); in experiment [15], 62.5 µM (inactive); in [16] it was > 100 µM (inactive).
For the molecule `COc1cc2c(cc1OC)[C@H]1C(COC(=O)c3ccccc3)CS/C(=N/c3ccccc3)N1CC2` (some centres undefined), the GI50 was 24.3 µM (inactive) in experiment [1]; greater than 100 µM in experiment [2]; 2.91 µM (inactive) in [3]; 5.15 µM (inactive) in experiment [4]; 3.21 µM (inactive) in experiment [5]; 92.9 µM (inactive) in [6]. Moreover, the GI50 in [7] was > 100 µM (inactive); in [8], 13.3 µM (inactive); in [9], > 100 µM (inactive); in experiment [10] it was > 100 µM (inactive); in experiment [11], 3.54 µM (inactive); in experiment [12] it was 5.68 µM (inactive). The GI50 in [13] was > 100 µM (inactive); in [14], > 100 µM (inactive); in [15], 21 µM (inactive); in [16], > 100 µM (inactive).
`C[C@@H]1C[C@@H]2C(=O)N(c3ccccc3)C(=O)[C@@H]2c2[nH]c3ccc(Br)cc3c21`: the GI50 in experiment [1] was 13.5 µM (inactive); in experiment [2] it was 34.3 µM; in experiment [3] it was 25 µM (inactive); in [4], 21.2 µM (inactive); in experiment [5], 55.3 µM (inactive); in experiment [6] it was 96.8 µM (inactive). Also, the GI50 was 50.1 µM (inactive) in [7]; 43.4 µM (inactive) in experiment [8]; 21.8 µM (inactive) in experiment [9]; 65.8 µM (inactive) in experiment [10]; > 100 µM (inactive) in [11]; 30.2 µM (inactive) in [12]. The GI50 in experiment [13] was 23.3 µM (inactive); in experiment [14], > 100 µM (inactive); in experiment [15], 29.6 µM (inactive); in experiment [16] it was 39.4 µM (inactive).
Turning to `COc1ccccc1/C=N/C12CC3CC(CC(C3)C1)C2`, the GI50 in [1] was > 100 µM (inactive); in experiment [2], 91.8 µM; in [3], > 100 µM (inactive); in [4], > 100 µM (inactive); in [5], > 100 µM (inactive); in experiment [6], > 100 µM (inactive). The GI50 in experiment [7] was 81.8 µM (inactive); in experiment [8] it was > 100 µM (inactive); in [9] it was > 100 µM (inactive); in experiment [10], > 100 µM (inactive); in [11], > 100 µM (inactive); in [12] it was > 10 µM (inactive). In addition, the GI50 in experiment [13], in [14], in [15] and in experiment [16] was > 100 µM (inactive) in each case.
Take `N#CC(c1ccccc1)c1nc2ccc(N)cc2[n+]([O-])c1C(C#N)c1ccccc1` (centres undefined): the GI50 in experiment [1] is 59.6 µM (inactive); in experiment [2] it was 46 µM; in experiment [3], 53.7 µM (inactive); in experiment [4], 74 µM (inactive); in experiment [5] it was 40.2 µM (inactive); in experiment [6], 64.9 µM (inactive). Further, the GI50 in experiment [7] was 1 µM (active); in [8] it was 38.9 µM (inactive); in [9] it was 56.4 µM (inactive); in experiment [10], > 100 µM (inactive); in [11], > 100 µM (inactive); in experiment [12] it was 54.1 µM (inactive). The GI50 in experiment [13] is > 100 µM (inactive); in [14], > 100 µM (inactive); in [15], > 100 µM (inactive); in experiment [16], 99.5 µM (inactive).
